Holding throughout (type): in vivo
For data set [1], the system named is Pentylenetetrazole seizures. In words: Anticonvulsant activity, pentylenetetrazole seizures in rats (oral ED50). The following applies: Rattus norvegicus, based on equimolar valproic acid equivalents. The source says:
(§1) In a comparison of anticonvulsant activities of
(§2) the oral ED50 based on equimolar valproic acid equivalents are established by standard procedures.

Data set [2] has as its system Pentylenetetrazole seizures. In words: Anticonvulsant activity, pentylenetetrazole seizures in mice (oral ED50). The settings on record: based on equimolar valproic acid equivalents.
Description: as §1, §2

The nature of data set [3]: Bioavailability study, blood plasma levels in rat. The following applies: po, 200 mg/kg, equimolar doses, 30 minutes after administration, read-out: peak blood plasma levels. On the procedure:
(§3) In a bioavailability study carried out with (A) and (C) above in various animal species, the peak blood plasma levels of oral, equimolar doses are determined according to standard procedures, 30 minutes after drug administration.

Data set [4] in a line: Bioavailability study, blood plasma levels in mouse. The following applies: po, 200 mg/kg, equimolar doses, 30 minutes after administration, read-out: peak blood plasma levels. Here is the method: as §3
The nature of data set [5]: Bioavailability study, blood plasma levels and AUC in dog. The following applies: po, 25 mg/kg, equimolar doses. On the procedure:
as §3
*Area under the curve value for 0-7 hours.

Regarding `CCCC(CCC)C(=O)[O-].[Na+]` [B, sodium valproate], the ED50 – broadly, the dose that gives a 50% effect, or the effect in half of the subjects – in data set [1] was found to be 415 mg/kg; in data set [2] (Mus musculus, po), 282 mg/kg.
Take `CCCC(CCC)C(=O)O` [A, 2-propylpentanoic acid]: the Cmax at 0.5 h in data set [3] turned out to be 84100 ng/g; in data set [4] it was 134000 ng/g; in data set [5] (30 minutes after administration, read-out: peak blood plasma levels), 65200 ng/g. Besides, in data set [1], the ED50 worked out at 355 mg/kg. The “oral ED50, Pentylenetetrazole seizures (mice)” value in data set [2] is given as < 800 mg/kg. In addition, in data set [5] (0-7 hours, read-out: AUC (Area under the curve value for 0-7 hours)), the AUC (as a rule, the area under the concentration-time curve, a measure of exposure) at 7 h was 82300 ng·h/mL.

The record behind these values is patent US5212326A, “Sodium hydrogen divalproate oligomer” (Abbott Laboratories, priority 1991, dated 1993).
